Patent US20180057505A1, “BICYCLIC HETEROARYL COMPOUNDS USEFUL AS INHIBITORS OF THE PAR-2 SIGNALING PATHWAY” (VERTEX PHARMACEUTICALS INCORPORATED, priority 2015, published 2018)

Tests used:
Format in all cases: cell-based
[1] = tested on: UTP-stimulated Ca2+ response in HT-29 cells; assay: Ca FLIPR TETRA assay, ANTAGONIST mode, activator 0.6 μM UTP; settings: Homo sapiens; HT-29 cells, activator 0.6 μM UTP
In short: (§1)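 Fluorescent Ca2+ dye (calcium 5) loading of overnight-plated HT-29 cells preceded compound addition and a 30 min room-temperature incubation. Responses to the specified activator concentration were then read by FLIPR Tetra in the same plate.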

PAR2 (HT-29 cells) [2] = molecular target: T1, PAR2 (HT-29 cells) (Homo sapiens, UniProt P55085); assay: Ca FLIPR TETRA assay, ANTAGONIST mode, activator 3.1 U/mL trypsin; settings: HT-29 cells, activator 3.1 U/mL trypsin; maximal antagonist concentration per Method (A: 0.1, 1 or 2 μM; B: 50 μM)
T1 construct: host or cells: HT-29
T1 sequence (P55085 26-397): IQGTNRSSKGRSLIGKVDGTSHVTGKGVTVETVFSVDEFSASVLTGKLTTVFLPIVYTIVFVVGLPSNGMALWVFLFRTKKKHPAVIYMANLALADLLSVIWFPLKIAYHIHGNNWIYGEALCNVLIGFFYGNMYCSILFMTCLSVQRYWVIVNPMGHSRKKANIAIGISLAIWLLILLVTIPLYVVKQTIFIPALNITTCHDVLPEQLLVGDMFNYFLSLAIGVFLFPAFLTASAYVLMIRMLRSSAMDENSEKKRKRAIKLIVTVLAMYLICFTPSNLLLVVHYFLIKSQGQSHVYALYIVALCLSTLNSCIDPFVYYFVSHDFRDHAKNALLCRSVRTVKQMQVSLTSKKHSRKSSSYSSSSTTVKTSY
In short: as §1

[3] = tested on: Thrombin-stimulated Ca2+ response in HT-29 cells; assay: Ca FLIPR TETRA assay, ANTAGONIST mode, activator 1 U/mL Thrombin; settings: Homo sapiens; HT-29 cells, activator 1 U/mL Thrombin
In short: as §1

PAR2 (HT-29 cells) [4] = molecular target: T1, PAR2 (HT-29 cells); assay: Ca FLIPR TETRA assay, ANTAGONIST mode, activator 8 μM SLIGKV; settings: HT-29 cells, activator 8 μM SLIGKV; maximal antagonist concentration per Method (A: 0.1, 1 or 2 μM; B: 50 μM)
In short: as §1

| Structure (SMILES) | IC50 [1] [nM] | IC50 (PAR2 (HT-29 cells) [2]) [nM] | IC50 [3] [nM] | IC50 (PAR2 (HT-29 cells) [4]) [nM] |
| --- | --- | --- | --- | --- |
| CC(C)(C)c1cc(-c2ccc(Cl)cc2)nc2cc(C(=O)N3CCN(C(=O)c4nnc[nH]4)CC3(C)C)oc12 [Example I-169] | > 1000 | 2.4 | > 1000 | 0.9 |
| Cc1ncc(C(=O)N2CCN(C(=O)c3cc4nc(-c5ccc(C(F)(F)F)cc5)cc(C(C)(C)C)c4o3)C(C)(C)C2)[nH]1 [Example I-170] | > 1000 | 8.2 | > 1000 | 6 |
| Cc1cc(C(=O)N2CCN(C(=O)c3cc4nc(-c5ccc(C(F)(F)F)cc5)cc(C(C)(C)C)c4o3)C(C)(C)C2)[nH]n1 [Example I-171] | > 1000 | 6.6 | > 1000 | 5.6 |
| CC(C)(C)c1cc(-c2ccc(Cl)c(F)c2)nc2cc(C(=O)N3CCNC(=O)C3(C)C)oc12 [Example I-172, 4-[7-tert-butyl-5-(4-chloro-3-fluoro-phenyl)furo[3,2-b]pyridine-2-carbonyl]-3,3-dimethyl-piperazin-2-one] | > 1000 | 12 | > 1000 | 10 |
| CC(C)(C)c1cc(-c2ccc(C(F)(F)F)cc2)nc2cc(C(=O)N3CCN(C(=O)c4nnc[nH]4)CC3(C)C)oc12 [Example I-173] | > 1000 | 7.5 | > 1000 | 4.8 |
| Cc1nnc(C(=O)N2CCN(C(=O)c3cc4nc(-c5ccc(C(F)(F)F)cc5)cc(C(C)(C)C)c4o3)C(C)(C)C2)[nH]1 [Example I-174] | > 1000 | 3.2 | > 1000 | 1.9 |
| Cc1nnc(C(=O)N2CCN(C(=O)c3cc4nc(-c5ccc(C(F)(F)F)cc5)cc(C(C)(C)C)c4o3)C(C)(C)C2)o1 [Example I-175] | > 1000 | 16 | > 1000 | 16 |
| Cc1cc(C(=O)N2CCN(C(=O)c3cc4nc(-c5ccc(Cl)cc5)cc(C(C)(C)C)c4o3)C(C)(C)C2)[nH]n1 [Example I-177] | > 1000 | 2 | > 1000 | 1.4 |
| Cc1nnc(C(=O)N2CCN(C(=O)c3cc4nc(-c5ccc(Cl)cc5)cc(C(C)(C)C)c4o3)C(C)(C)C2)[nH]1 [Example I-178] | > 1000 | 1 | > 1000 | 0.7 |
| Cc1nnc(C(=O)N2CCN(C(=O)c3cc4nc(-c5ccc(Cl)cc5)cc(C(C)(C)C)c4o3)C(C)(C)C2)o1 [Example I-179] | > 1000 | 5.5 | > 1000 | 2.8 |
| Cc1ncc(C(=O)N2CCN(C(=O)c3cc4nc(-c5ccc(Cl)cc5)cc(C(C)(C)C)c4o3)C(C)(C)C2)[nH]1 [Example I-180] | > 1000 | 2.3 | > 1000 | 1.1 |
| CC(C)(C)c1cc(-c2ccc(Cl)c(F)c2)nc2cc(C(=O)N3CCN(C(=O)c4ncn[nH]4)CC3(C)C)oc12 [Example I-181] | > 1000 | 1.6 | > 1000 | 0.9 |
| CC(C)(C)c1cc(-c2ccc(F)cc2)nc2cc(C(=O)N3CCN(c4cn[nH]c4)C(=O)C3(C)C)oc12 [Example I-182] | > 1000 | 5.8 | > 1000 | 1.1 |
| Cc1nnc(C(=O)N2CCN(C(=O)c3cc4nc(-c5ccc(F)cc5)cc(C(C)(C)C)c4o3)C(C)(C)C2)o1 [Example I-183] | > 1000 | 9.1 | > 1000 | 2.6 |
| CC(C)(C)c1cc(-c2ccc(F)cc2)nc2cc(C(=O)N3CCN(C(=O)c4ncccn4)CC3(C)C)oc12 [Example I-184] | > 1000 | 12 | > 1000 | 5.7 |
| CC(C)(C)c1cc(-c2ccc(F)cc2)nc2cc(C(=O)N3CCN(C(=O)c4ccccn4)CC3(C)C)oc12 [Example I-185] | > 1000 | 5.1 | > 1000 | 1.2 |
| Cc1cc(C(=O)N2CCN(C(=O)c3cc4nc(-c5ccc(F)cc5)cc(C(C)(C)C)c4o3)C(C)(C)C2)no1 [Example I-186] | > 1000 | 1 | > 1000 | 0.7 |
| CC(C)(C)c1cc(-c2ccc(F)cc2)nc2cc(C(=O)N3CCN(C(=O)c4n[nH]c(=O)[nH]4)CC3(C)C)oc12 [Example I-187] | > 1000 | 20 | > 1000 | 10 |
| COC(=O)C1CC(C(=O)N2CCN(C(=O)c3cc4nc(-c5ccc(F)cc5)cc(C(C)(C)C)c4o3)C(C)(C)C2)C1 (stereo not drawn) [Example I-188] | > 1000 | 6 | > 1000 | 3 |
| CC(C)(C)c1cc(-c2ccc(F)cc2)nc2cc(C(=O)N3CCN(C(=O)C4CC(C(=O)O)C4)CC3(C)C)oc12 (stereo not drawn) [Example I-189] | > 1000 | 28 | > 1000 | 17 |
| COC(=O)C12CC(C(=O)N3CCN(C(=O)c4cc5nc(-c6ccc(F)cc6)cc(C(C)(C)C)c5o4)C(C)(C)C3)(C1)C2 [Example I-190] | 760 | 13 | 520 | 11 |
| CC(C)(C)c1cc(-c2ccc(F)cc2)nc2cc(C(=O)N3CCN(C(=O)C45CC(C(=O)O)(C4)C5)CC3(C)C)oc12 [Example I-191] | > 1000 | 713 | > 1000 | 403 |
| CC(C)(C)c1cc(-c2ccc(F)cc2)nc2cc(C(=O)N3CCN(C(=O)c4ccc(C(=O)O)cc4)CC3(C)C)oc12 [Example I-192] | > 1000 | 13 | > 1000 | 14 |
| CC(C)(C)c1cc(-c2ccc(F)cc2)nc2cc(C(=O)N3CCN(C(=O)C4(C(=O)O)CC4)CC3(C)C)oc12 [Example I-193] | > 1000 | 190 | > 1000 | 260 |
| CC(C)(C)c1cc(-c2ccc(F)cc2)nc2cc(C(=O)N3CCN(C(=O)CCC(=O)O)CC3(C)C)oc12 [Example I-194] | > 1000 | 22 | > 1000 | 9 |
| CC(C)(C(=O)O)C(=O)N1CCN(C(=O)c2cc3nc(-c4ccc(F)cc4)cc(C(C)(C)C)c3o2)C(C)(C)C1 [Example I-195] | > 1000 | 233 | > 1000 | 96 |
| CC(C)(CC(=O)N1CCN(C(=O)c2cc3nc(-c4ccc(F)cc4)cc(C(C)(C)C)c3o2)C(C)(C)C1)C(=O)O [Example I-196] | > 1000 | 1 | > 1000 | 0.7 |
| CC(C)(C)c1cc(-c2ccc(F)cc2)nc2cc(C(=O)N3CCN(C(=O)[C@H]4C[C@@H]4C(=O)O)CC3(C)C)oc12 [Example I-197] | > 1000 | 76 | > 1000 | 48 |
| CC1(C(=O)O)CCC(C(=O)N2CCN(C(=O)c3cc4nc(-c5ccc(F)cc5)cc(C(C)(C)C)c4o3)C(C)(C)C2)CC1 (stereo not drawn) [Example I-198] | > 1000 | 0.8 | > 1000 | 0.1 |
| CC(C)(C)c1cc(-c2ccc(F)cc2)nc2cc(C(=O)N3CCN(C(=O)C4(C(N)=O)CC4)CC3(C)C)oc12 [Example I-199] | > 1000 | 27 | > 1000 | 17 |
